Data as given in patent US5188950A, “Method of preparing HIV protease inhibitors” (Merck & Co., Inc., priority 1992, dated 1993).
“And” between values parts separate entries of the source, which are not always exact repeats. Equal entries are not always repeated.

How the values were obtained:
[1] = target: T1, HIV protease (Human immunodeficiency virus type 1 group M subtype B, UniProt P12497); experiment: Inhibition of microbial expressed viral protease (peptide substrate cleavage, HPLC of products); type: biochemical; conditions: estimated activities; compounds as isolated from rat liver slices; pH 5.5, 2 hours at 36° C., 283 pM protease
T1 construct: the protease expressed in Escherichia coli; made in house; host or cells: Escherichia coli
Method: Inhibition studies of the reaction of the protease expressed in Escherichia coli with a peptide substrate [Val-Ser-Gln-Asn-(betanapthyl)Ala-Pro-Ile-Val, 0.665 mg/mL at the time the reaction is initiated] were carried out. Aliquots of 40 μl of substrate in substrate buffer (60 mM Na acetate, pH 5.5, in 0.117% BSA) were combined with 10 μl aliquots of various concentrations of inhibitor. The reaction was initiated by the addition of 10 μl of 1.7 nM protease in a solution of 0.05M Na acetate, pH 5.5, in 10% glycerol, 1 mM DTT, 1 mM EDTA, and 64 μM octoxynol-9.5 to yield a final concentration of 283 pM protease. Incubation proceeded for 2 hours at 36° C. The reaction was quenched with 75 ul of 5% phosphoric acid. Products of the reaction were separated by HPLC. The extent of inhibition of the reaction was determined from the peak heights of the products.

[2] = Biotransformation of L-689,502 by rat liver slices; type: in vitro ADME; conditions: for metabolite share of the total metabolites: rat liver slices incubated with L-689,502, pH 7.4, 37° C., % of the total metabolites
Method: L-689,502 (5.65 μmole) was incubated at pH 7.4, 37° C., with rat liver slices (1 cm wide, 200-300μ 3.7 g) in 100 ml of Williams' Medium E (composition described in Sigma commercial circular, pages 1-5, herein incorporated by reference for this purpose). A gradual increase in the metabolites in an organic extract of the medium was observed over a period of 5 hours when ~31% of .he drug was metabolized. Three of the major metabolites M1 (6.1% of the total metabolites) and M2 (6.3%) and M4 (12.1%) were characterized by ^1 H-NMR and FAB/Mass spectroscopies. Exact mass measurements, by high resolution FAB/MS, for M1 and M2 gave a molecular ion at m/z 690.375305, which computed to an empirical formula of C39 H52 N3 O8 for the protonated form. The M4 peak was also matched with a synthetic standard by HPLC, MS and NMR.

[3] = Biotransformation of L-689,502 by dog liver slices; type: in vitro ADME; conditions: dog liver slices incubated with L-689,502; for metabolite share of the total metabolites: % of the total metabolites

Structure (SMILES)	IC50 [1]	metabolised at 5 h, 56.5 µM ([2]; over 5 hours, pH 7.4, 37° C., rat liver slices, 5.65 μmole in 100 ml Williams' Medium E, read-out: drug metabolized) [%]	metabolite share of the total metabolites [2] [%]	metabolite share of the total metabolites [3] [%]	amount of metabolite peak (in words) ([3]; HPLC)
CC(C)(C)OC(=O)N[C@@H](Cc1ccccc1)[C@@H](O)C[C@@H](Cc1ccc(OCCN2CCOCC2)cc1)C(=O)N[C@H]1c2ccccc2C[C@H]1O [L-689,502, N-(cis-2(R)-hydroxy-1(S)-indanyl)-5(S)-(1,1-dimethylethoxycarbonylamino)-4(S)-hydroxy-6-phenyl-2(R)-[(4-(2-(4-morpholinyl)ethoxy)phenyl)methyl]-hexanamide]	0.93 nM and 0.95 nM	~31			
CC(C)(C)OC(=O)N[C@@H](Cc1ccccc1)[C@@H](O)C[C@@H](Cc1ccc(OCCN2CCOCC2)cc1)C(=O)N[C@H]1c2ccccc2[C@H](O)[C@H]1O [M1]	2.7 nM		6.1	13.1	
CC(C)(C)OC(=O)N[C@@H](Cc1ccccc1)[C@@H](O)C[C@@H](Cc1ccc(OCCN2CCOCC2)cc1)C(=O)N[C@H]1c2cccc(O)c2C[C@H]1O [M2]	1.3 nM		6.3	1.6	
CC(C)(C)OC(=O)N[C@@H](Cc1ccccc1)[C@@H](O)C[C@@H](Cc1ccc(OCCN2CCOCC2=O)cc1)C(=O)N[C@H]1c2ccccc2C[C@H]1O [M4]	~0.5 nM		12.1		a small amount
